These results are taken from patent publication US20220313626A1, “SMALL MOLECULE INHIBITORS FOR TREATING CANCER IN A SUBJECT HAVING TUMORS WITH HIGH INTERSTITIAL PRESSURE” (GUANGZHOU MAXINOVEL PHARMACEUTICALS CO., LTD., priority 2019, published 2022).

The TGI is how far tumour growth fell short of that in controls. Lower therefore signals a weaker effect on the tumour.

The subject of data set [1] is PD-L1 suppressed human T-cells. The data set is described as follows: Activation of T-Cell Suppressed by PD-L1 (IFN-g readout). As to conditions: human T cells co-cultured with Hep3B cells transfected with human PD-L1; dose dependent; Keytruda positive control. It counts as cell-based. The text has this: To measure the cellular activity of the compound, a protocol of Activation of T-Cell Suppressed by PD-L1 was used. In this protocol, human Hep3B cells were stably transfected with human PD-L1. The human T cells containing PD-1 were inactivated by co-culturing with these PD-L1 transfected cells. Then anti-PD-1 antibody Keytruda® was selected as the reference to profile the compound for its activation of PD-L1 suppressed human T-cells.

Data set [2] deals with MC-38-hPD-L1 tumor cells. The experiment in a line: Anti-tumor efficacy in MC-38-hPD-L1 models. It counts as in vivo. Conditions: for TGI / Tumor Volume: MC-38-hPD-L1, C57BL/6-hPD-1 mice, BID, 19 days. How it is done: Materials required for the experiment: Antibody: PD-L1 antibody Durvalumab, Product specifications: 120 mg/2.4 mL(50 mg/mL), Lot No.: 041E17C, Manufacture: AstraZeneca, purchased from Hongkong Mingchuang Medical Limited, storage at 2-8° C. Experimental animal: 120 C57BL/6-hPD-1 mice, female, 6˜8 weeks old, 18˜21 g, purchased from Jiangsu Gem Pharmatech Co. Ltd. Formulation material: castor oil (Cremophor RH40), CAS No.: 61788-85-0, Lot No.: 29761847G0, purchased from Shanghai Xietai Chemical Co. Ltd.; β-cyclodextrin (SBE-β-CD), CAS No.: 128446-35-5, Lot No.: R1804474, purchased from Shanghai Shaoyuan Chemical Co. Ltd.; DMEM culture medium, CAS No.: 11995-065, Lot No.: 2025378, purchased from Gibco Co. Ltd.; PBS, Art. No.: SH30256.01, Lot No.: AB10141338, purchased from HyClone Co. Ltd.; Fetal bovine serum: CAS No.: 10099-141, Lot No.: 1966174C, purchased from Gibco Co. Ltd.; hygromycinB: CAS No.: 10687010, Lot No.: HY069-L12 purchased from Invitrogen.
Cell culture: The MC-38 tumor cells (NCI) were maintained in vitro as a monolayer culture in DMEM medium supplemented with 10% heat inactivated fetal bovine serum, 100 μg/mL hygromycinB at 37° C. in an atmosphere of 5% CO2 in air. The tumor cells were routinely subcultured three times weekly by trypsin-EDTA treatment. The cells growing to a confluency around 70%-80% were harvested and counted for tumor inoculation.
Tumor cell inoculation and group administration: The 100 uL cell suspension containing 1×10^6 MC-38-hPD-L1 tumor cells (cells suspended in base DMEM medium) was inoculated into right dorsal subcutaneous area in mice. 6 days after inoculation, 60 tumor-bearing mice with transplanted tumors ranging from 31.49 mm^3 to 110.26 mm^3 were selected, stratified randomization was used to group and start the administration on the day of grouping.
Preparation of test substances: Preparation of formulation: 800 mL of sterile water was added into the volumetric flask with magnetic stirring to have a vortex. 100 g of castor oil (Cremophor RH40) was added with a spoon slowly into the vortex and the solution was kept stirring. 200 g of β-cyclodextrin (SBE-β-CD) was added while the solution was kept stirring until the solution was clear, and the total volume was set to 1000 mL, which contained 10% (w/v) Cremophor RH40+20% (w/v) an aqueous solution of SBE-β-CD.
Preparation of Compound Suspension: 150.92 mg compound was weighed and 12.5 mL 10% (w/v) Cremophor RH40+20% (w/v) SBE-β-CD aqueous solution were added. The suspension solution with a concentration of 12.0 mg/mL was obtained by vortex for 2 minutes and ultrasound for 30 minutes. 5.0 mL of the compound suspension solution with concentration of 12.0 mg/mL was pipetted and 5.0 mL aqueous formulation solution was added. The suspension solution with a concentration of 6.0 mg/mL was obtained by vortex for 1 minute and sonicated by ultrasound for 5 minutes. 2.0 mL of the compound suspension solution with concentration of 6.0 mg/mL was pipetted and […] was added. The suspension solution with a concentration of 3.0 mg/mL was obtained by vortex for 1 minute and sonicated by ultrasound for 5 minutes. Compound suspension solution was prepared once a day.
Preparation of hPD-L1 antibody: 0.12 mL PD-L1 antibody Durvalumab (50 mg/mL) original solution was pipetted and divided into […] in 5 mL sterile centrifugal tube, which were packed with each containing 6.0 mg. They were stored in refrigerator at 4° C. Before administration, a raw solution containing 0.12 mL and 50 mg/mL was taken, and 2.88 mL 0.9% sodium chloride solution was added to make the solution thoroughly mixed. 3 mL Duvalumab solution with the concentration 2 mg/mL was obtained.
Procedure: The mice in the vehicle group were weighed and recorded in the electronic balance according to their numbers. […]

For `Cc1c(/C=C/c2cc(CN[C@@](C)(CO)C(=O)O)ccc2C(F)(F)F)cccc1-c1ccccc1` [Compound], the “activation of PD-L1 suppressed human T cell, indicated by increase of cytokine IFN-g” value in data set [1] was “effectively restored the activation”. For the same molecule, the “tolerability (adverse reactions)” value in data set [2] (C57BL/6-hPD-1 mice, PO, BID up to 120 mg/kg) was “well tolerated”. The TGI in data set [2] (30 mg/kg, PO) was 24.95%; in data set [2] (60 mg/kg, PO), 29.06%; in data set [2] (120 mg/kg, PO), 51.21%. For the same molecule, the “Tumor Volume” value in data set [2] (30 mg/kg, PO) amounted to 459.82 ± 58.24 mm^3; in data set [2] (60 mg/kg, PO), 439.04 ± 51.23 mm^3; in data set [2] (120 mg/kg, PO), 325.23 ± 38.59 mm^3. Besides, the “growth of subcutaneous MC-38-hPD-L1 tumors in mice” value in data set [2] (MC-38-hPD-L1 model, C57BL/6-hPD-1 mice) was “significantly inhibit the growth”.
